# Reference: publication PMC3596469 (European journal of pharmaceutical sciences : official …, 2013)
# Where two headings read alike, the source gives them in different places.
# Legend:
# [1] = target: T1, Human sEH (Homo sapiens, UniProt P34913); test: Radioactive sEH inhibition assay; type: biochemical; details: read-out: IC50 Human sEH (value in parentheses); [3H] t-DPPO as substrate
# T1 sequence (P34913 1-555): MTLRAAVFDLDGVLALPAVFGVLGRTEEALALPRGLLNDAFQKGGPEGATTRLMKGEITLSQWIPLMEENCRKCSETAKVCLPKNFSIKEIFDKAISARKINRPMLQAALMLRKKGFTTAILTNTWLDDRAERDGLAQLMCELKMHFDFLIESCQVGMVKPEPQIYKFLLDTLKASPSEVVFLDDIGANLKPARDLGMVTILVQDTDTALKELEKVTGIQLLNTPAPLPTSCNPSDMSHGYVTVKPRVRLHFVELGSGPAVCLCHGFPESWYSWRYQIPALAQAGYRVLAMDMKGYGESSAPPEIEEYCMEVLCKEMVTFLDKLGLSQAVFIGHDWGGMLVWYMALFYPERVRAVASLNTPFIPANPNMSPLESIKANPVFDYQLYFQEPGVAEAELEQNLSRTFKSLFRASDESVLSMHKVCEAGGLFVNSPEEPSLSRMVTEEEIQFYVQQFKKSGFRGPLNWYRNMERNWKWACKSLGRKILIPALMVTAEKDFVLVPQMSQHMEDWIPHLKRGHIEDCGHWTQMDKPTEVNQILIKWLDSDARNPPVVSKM
# [2] = mouse, in vivo, po
# [3] = mouse, in vivo, po, 1 mg/kg; cited from earlier work
# [4] = for oral bioavailability: from AUC values; for blood levels at the lowest oral dose: oral 0.1 mg/kg, 24 h sampling
# [5] = test system: LPS-induced release of inflammatory cytokines in plasma; test: Plasma cytokines in LPS-challenged murine model; type: in vivo, Male Swiss Webster mice
# [6] = test system: plasma epoxides and diols (biomarker of sEH action); test: Plasma oxylipin profile; type: in vivo, Male Swiss Webster mice
# [7] = test system: LPS-challenged mice; test: Food intake and body weight in LPS-challenged murine model; type: in vivo, Male Swiss Webster mice; details: for animals' appetite, 1st day post LPS challenge: oral administration
# [8] = PK after i.v. injection in mice, 2-compartmental analysis; details: i.v. 0.01 mg/kg
# [9] = mice, oral gavage 0.1 mg/kg, blood
# [10] = mice, oral gavage 0.3 mg/kg, blood
# [11] = mice, oral gavage 1.0 mg/kg, blood
# [12] = mice, oral gavage 3.0 mg/kg, blood
# [13] = LPS 3 mg/kg + inhibitor 3 mg/kg single dose, terminated 48 h
# [14] = LPS 3 mg/kg + inhibitor 3 mg/kg, terminated 24 h
# [15] = male, Swiss Webster, mouse, whole blood, po, 0.1 mg/kg
# [16] = male, Swiss Webster, mouse, whole blood, po, 0.3 mg/kg
# [17] = male, Swiss Webster, mouse, whole blood, po, 1 mg/kg
# [18] = male, Swiss Webster, mouse, whole blood, po, 3 mg/kg
compound,measurement,setting,value
1-chlorophenyl-3-(1-propionylpiperidin-4-yl)urea [CPPU],IC50,[1],280 nM
same,AUCt,[2]; 0.1 mg/kg,2.3 ± 0.4 µM·h
same,MRT,[2]; 0.1 mg/kg,13.1 ± 13.5 h
same,AUCt,[2]; 0.3 mg/kg,6.1 ± 1.7 µM·h
same,MRT,[2]; 0.3 mg/kg,16.4 ± 6.3 h
same,AUCt,[2]; 1 mg/kg,31.7 ± 18.4 µM·h
same,MRT,[2]; 1 mg/kg,17.2 ± 7.3 h
same,AUCt,[2]; 3 mg/kg,140 ± 93 µM·h
same,MRT,[2]; 3 mg/kg,17.1 ± 1.3 h
"CC(=O)N1CCC(NC(=O)NC23CC4CC(CC(C4)C2)C3)CC1 [APAU, 1-(1-acetypiperidin-4-yl)-3-adamantanylurea]",AUCt,[3],1.4±0.3 0.35±0.15 uM•h
same,MRT,[3],20±4.2 22.2±4.3 h
"O=C(Nc1ccc(OC(F)(F)F)cc1)NC1CCN(C(=O)C2CC2)CC1 [TCPU, 1-(4-trifluoro-methoxy-phenyl)-3-(1-cyclopropanecarboxylpiperidin-4-yl)urea]",AUCt,"[4]; mice, oral gavage 0.1 mg/kg",2.2 ± 1.1 µM·h
same,MRT,"[4]; mice, oral gavage 0.1 mg/kg",18.9 ± 6.6 h
same,Tmax,"[4]; mice, oral gavage 0.1 mg/kg",5.3 ± 1.2 h
same,Cmax,[4]; [9],270 ± 120 nM
same,AUCt,"[4]; mice, oral gavage 0.3 mg/kg",16.6 ± 8.8 µM·h
same,MRT,"[4]; mice, oral gavage 0.3 mg/kg",16.9 ± 5.4 h
same,Cmax,[4]; [10],1680 nM
same,AUCt,"[4]; mice, oral gavage 1.0 mg/kg",43.8 ± 5.1 µM·h
same,MRT,"[4]; mice, oral gavage 1.0 mg/kg",24.0 ± 1.8 h
same,Tmax,"[4]; mice, oral gavage 1.0 mg/kg",3.2 ± 2.2 h
same,Cmax,[4]; [11],2560 nM
same,AUCt,"[4]; mice, oral gavage 3.0 mg/kg",94.3 ± 8.0 µM·h
same,MRT,"[4]; mice, oral gavage 3.0 mg/kg",32.1 ± 5.6 h
same,Tmax,"[4]; mice, oral gavage 3.0 mg/kg",3.9 ± 2.5 h
same,Cmax,[4]; [12],5160 nM
"CCC(=O)N1CCC(NC(=O)Nc2ccc(OC(F)(F)F)cc2)CC1 [TPPU, 1-(4-trifluoro-methoxy-phenyl)-3-(1-propionylpiperidin-4-yl)urea]",IL-6 in plasma,[5]; [13],9 ± 0.5 pg/mL
same,IL-10 in plasma,[5]; [13],7.7 ± 0.5 pg/mL
same,INF-γ in plasma,[5]; [13],2.0 ± 0.5 pg/mL
same,MCP-1 in plasma,[5]; [13],260 ± 50 pg/mL
same,TNF-α in plasma,[5]; [13],11 ± 1 pg/mL
same,IL-6 in plasma,[5]; [14],118 ± 65 pg/mL
same,IL-10 in plasma,[5]; [14],8.7 ± 0.4 pg/mL
same,INF-γ in plasma,[5]; [14],9.7 ± 3.0 pg/mL
same,MCP-1 in plasma,[5]; [14],1970 ± 900 pg/mL
same,TNF-α in plasma,[5]; [14],28 ± 14 pg/mL
same,reduction of cytokine or chemokine release one day after treatment,[5]; LPS-challenged mice,Neither the administration of TPPU nor the t-AUCB treatment demonstrated a beneficial effect
same,plasma levels of both EETs and EpOMEs,"[6]; 1- and 2-day post treatment, LPS-challenged mice",significantly increased
same,plasma levels of both DHOMEs and DHETs,[6]; 2-day post LPS treatment,significantly decreased
same,animal's appetite (pilot study),[7]; 1 mg/kg,no favorable effect was observed
same,animal's appetite at 2 days post treatment (pilot study),[7]; oral 3 mg·kg^-1,improved
same,"animals' appetite, 1st day post LPS challenge",[7]; LPS-challenged mice,did not improve
same,"animals' appetite, 2nd day post LPS challenge","[7]; oral, TPPU 3 mg/kg once, t-AUCB 3 mg/kg twice, LPS-challenged mice",significantly improved
same,AUCt,[8],3.5 ± 0.4 µM·h
same,Cl (clearance),[8],20 ± 1.7 mL/min/kg
same,T1/2β (half life of elimination phase),[8],>24 h
same,Vdss (volume distribution at steady state),[8],4.8 ± 1.8 L/kg
same,oral bioavailability,"[4]; mice, oral 0.1 mg/kg vs i.v. 0.01 mg/kg",43 ± 25%
same,blood levels at the lowest oral dose,[4]; mice,above their in vitro IC50 values throughout the sampling time
same,oral bioavailability,"[4]; mice, oral 0.3 mg/kg vs i.v. 0.01 mg/kg",36 ± 5%
same,oral bioavailability,"[4]; mice, oral 1.0 mg/kg vs i.v. 0.01 mg/kg",31 ± 2%
same,oral bioavailability,"[4]; mice, oral 3.0 mg/kg vs i.v. 0.01 mg/kg",18 ± 3%
same,MRT,"[4]; mice, oral gavage 0.1 mg/kg",56.9 ± 5.4 h
same,Tmax,"[4]; mice, oral gavage 0.1 mg/kg",2 ± 0 h
same,Cmax,[4]; [9],445 ± 200 nM
same,MRT,"[4]; mice, oral gavage 0.3 mg/kg",69.5 ± 2.2 h
same,Tmax,"[4]; mice, oral gavage 0.3 mg/kg",2 ± 0 h
same,Cmax,[4]; [10],1560 nM
same,MRT,"[4]; mice, oral gavage 1.0 mg/kg",26.8 ± 2.2 h
same,Tmax,"[4]; mice, oral gavage 1.0 mg/kg",2.7 ± 1.2 h
same,Cmax,[4]; [11],5370 nM
same,MRT,"[4]; mice, oral gavage 3.0 mg/kg",24.0 ± 0.2 h
same,Tmax,"[4]; mice, oral gavage 3.0 mg/kg",3.7 ± 1.8 h
same,Cmax,[4]; [12],7100 nM
"CS(=O)(=O)N1CCC(NC(=O)Nc2ccc(OC(F)(F)F)cc2)CC1 [TUPS, 1-(1-methanesulfonyl-piperidin-4-yl)-3-(4-trifluoromethoxy-phenyl)-urea]",Cmax,[4]; [15],< 0.4 nM
same,AUC(0-t),[4]; [16],5.3 µM·h
same,MRT,[4]; [16],21.5 h
same,AUC(0-t),[4]; [17],24.2 µM·h
same,Cmax,[4]; [17],1650 nM
same,MRT,[4]; [17],17.4 h
same,AUC(0-t),[4]; [18],48.5 µM·h
same,Cmax,[4]; [18],2860 nM
same,MRT,[4]; [18],22.7 h
same,blood levels at the lowest oral dose,[4]; mice,under the respective detection limit
"O=C(NC12CC3CC(CC(C3)C1)C2)N[C@H]1CC[C@H](Oc2ccc(C(=O)O)cc2)CC1 [t-AUCB, trans-4-[4-(3-adamantan-1-yl-ureido)-cyclohexyloxy]-benzoic acid, reference compound]","animals' appetite, 1st day post LPS challenge",[7]; LPS-challenged mice,did not improve
"O=C(Nc1ccc(OC(F)(F)F)cc1)N[C@H]1CC[C@H](Oc2ccc(C(=O)O)cc2)CC1 [t-TUCB, trans-4-[4-[3-(4-Trifluoromethoxy-phenyl)-Ureido]-cyclohexyloxy]-Benzoic acid]",Cmax,[4]; [15],< 0.4 nM
same,AUC(0-t),[4]; [16],0.4 µM·h
same,Cmax,[4]; [16],45 nM
same,MRT,[4]; [16],12.6 h
same,Tmax,[4]; [16],6 h
same,AUC(0-t),[4]; [17],4.5 µM·h
same,Cmax,[4]; [17],410 nM
same,MRT,[4]; [17],12.6 h
same,Tmax,[4]; [17],5.9 h
same,AUC(0-t),[4]; [18],16.1 µM·h
same,Cmax,[4]; [18],2120 nM
same,MRT,[4]; [18],8 h
same,Tmax,[4]; [18],2.6 h
same,blood levels at the lowest oral dose,[4]; mice,under the respective detection limit
